Measurements reported in patent US8802655B2, “4-hydroxybenzomorphans” (Rensselaer Polytechnic Institute, priority 2004, dated 2014).
Read-outs that look alike come from different tables or passages of the source.

Legend:
Format in all cases: binding
[1] = target: T1, κ opioid receptor (UniProt P41144)
T1 construct: rows headed: Ki (nM ± S.E.) [^3H]U69,593 (κ); other: radioligand [3H]U69,593
Method: (§1) The affinities of the compounds of the invention are determined by the method described in Wentland et al. [BioOrg.

[2] = target: T2, δ opioid receptor (UniProt A0A286XTF2); design: unit μM; conditions: radioligand [3H]Naltrindole
Method: as §1

[3] = target: μ opioid receptor (Homo sapiens, UniProt P35372); conditions: read-out: Ki (nM ± S.E.) [^3H]DAMGO (μ)
Sequence of μ opioid receptor (P35372 whole entry): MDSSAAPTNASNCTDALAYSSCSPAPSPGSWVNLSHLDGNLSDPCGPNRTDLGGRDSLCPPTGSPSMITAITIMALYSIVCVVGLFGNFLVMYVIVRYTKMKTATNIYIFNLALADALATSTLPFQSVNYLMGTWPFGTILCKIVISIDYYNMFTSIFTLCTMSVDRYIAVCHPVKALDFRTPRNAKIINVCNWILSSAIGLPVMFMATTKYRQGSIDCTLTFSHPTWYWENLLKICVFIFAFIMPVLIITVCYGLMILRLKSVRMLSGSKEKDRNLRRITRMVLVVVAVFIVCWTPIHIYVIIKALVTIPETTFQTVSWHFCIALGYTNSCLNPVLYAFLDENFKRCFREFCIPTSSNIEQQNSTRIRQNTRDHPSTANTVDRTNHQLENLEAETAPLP
Method: as §1

[4] = target: T2, δ opioid receptor; conditions: read-out: Ki (nM ± S.E.) [^3H]Naltrindole (δ); radioligand [3H]Naltrindole
Method: as §1

[5] = read-out: Ki (nM ± S.E.) [^3H]U69,593 (κ); radioligand [3H]U69,593
[6] = radioligand [3H]U69,593; read-out: Ki (nM ± S.E.) [^3H]U69,593 (κ)
[7] = read-out: Ki (nM ± S.E.) [^3H]Naltrindole (δ)

SMILES	Ki [1, 5] [nM]	Ki ([2]; read-out: Ki [^3H]Naltrindole (δ), unit μM) [µM]	Ki [3] [nM]	Ki [1, 6] [nM]	Ki [2, 7] [µM]	Ki [4] [nM]
COc1ccc2c(c1O)[C@]13CCN(CC4CC4)[C@H](C2)[C@]1(O)CCC(=O)C3 [Sample 4, 3-methoxy-4-hydroxy-naltrexone]	12 ± 0.29	> 10				
NC(=O)c1ccc2c(c1O)[C@]13CCN(CC4CC4)[C@H](C2)[C@]1(O)CCC(=O)C3 [Sample 3, 3-Carboxyamido-4-hydroxy-naltrexone]			0.052 ± 0.004	0.23 ± 0.018	0.0026 ± 0.00026	
NC(=S)c1ccc2c(c1O)[C@]13CCN(CC4CC4)[C@H](C2)[C@]1(O)CCC(=O)C3 [Sample 26, 3-Thiocarboxyamido-4-hydroxy-naltrexone]	5 ± 0.72				0.14 ± 0.011	
COc1ccc2c(c1O)[C@]13CCN(C)[C@H](C2)[C@@H]1C=CC(=O)C3 [Sample 7, 3-Methoxy-4-hydroxy-6-oxo-morphine]	740 ± 25				2 ± 0.08	
NC(=O)c1ccc2c(c1O)[C@]13CCN(CC4CCC4)[C@H](C2)[C@]1(O)CCC(=O)C3 [Sample 21, 3-Carboxamido-4-hydroxy-6-oxo-nalbuphine]	0.27 ± 0.013					4.2 ± 0.36
NC(=O)c1ccc2c3c1O[C@H]1C(=O)CC[C@@]4(O)[C@@H](C2)N(CC2CC2)CC[C@]314 [Sample 2, 3-Carboxyamido-naltrexone]			1.9 ± 0.21	22 ± 0.85	0.11 ± 0.0081	
COc1ccc2c(c1O)[C@]13CCN(C)[C@H](C2)[C@@H]1CCC(=O)C3 [Sample 8, 3-Methoxy-4-hydroxy-6-oxo-7,8-dihydro-morphine]	350 ± 8.5				1.2 ± 0.065	
